In article PMC8002512, “IRE1α Is a Therapeutic Target for Cystic Fibrosis Airway Inflammation” (International Journal of Molecular Sciences, 2021) one finds Kd data, which are given here for one molecule.

The structures appear in SMILES notation. pKd: −log10 of the molar value.

In the assay the target is T1, IRE1α (Homo sapiens, UniProt O75460).
T1 construct: gene ERN1; cytoplasmic portion, kinase and RNase domains, residues 547-977 of NP_001424, N-terminal His-tagged (Sf9)
Briefly: TR-FRET (LanthaScreen) displacement of tracer […] from purified His-tagged IRE1α. It counts as binding.

T1 sequence (O75460 547-977): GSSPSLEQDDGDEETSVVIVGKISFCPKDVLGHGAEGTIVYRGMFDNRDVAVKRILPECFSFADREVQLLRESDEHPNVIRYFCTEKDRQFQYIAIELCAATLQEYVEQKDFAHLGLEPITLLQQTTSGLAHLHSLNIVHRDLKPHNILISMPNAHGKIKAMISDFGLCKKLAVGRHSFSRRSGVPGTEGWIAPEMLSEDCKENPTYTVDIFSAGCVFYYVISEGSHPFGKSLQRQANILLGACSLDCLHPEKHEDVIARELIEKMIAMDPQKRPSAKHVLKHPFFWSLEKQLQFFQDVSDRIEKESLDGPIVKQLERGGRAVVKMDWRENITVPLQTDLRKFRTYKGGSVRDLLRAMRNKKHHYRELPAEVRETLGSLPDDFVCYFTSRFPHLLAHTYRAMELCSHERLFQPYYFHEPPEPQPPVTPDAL

`CC(C)(C)c1nc(-c2ccc(NC(=O)Nc3cccc(C(F)(F)F)c3)c3ccccc23)c2c(N)nccn12` [KIRA6]: the pKd was 6.55.

The pKd is the Kd on a negative log10 scale, so that one unit is a factor of ten. Higher therefore signals a low Kd.
